Laboratory results: ChEMBL document CHEMBL1139339, “Alantrypinone and its derivatives: synthesis and antagonist activity toward insect GABA receptors” (2009)
Calls of active or inactive are those of the source. No cut-off for these calls is given here.

What follows are compounds tested on Musca domestica (assay: Displacement of [3H]EBOB from housefly GABA receptor).

| Activity | SMILES |
| --- | --- |
| Active | O=C1N[C@@]2(Cc3ccccc3)c3nc4ccccc4c(=O)n3[C@H]1C[C@@]21C(=O)Nc2ccccc21 (racemic) |
| Active | CC(C)[C@@]12NC(=O)[C@H](C[C@@]13C(=O)Nc1ccccc13)n1c2nc2ccccc2c1=O (racemic) |
| Active | CN1C(=O)[C@@]2(C[C@H]3C(=O)N[C@@]2(C)c2nc4ccccc4c(=O)n23)c2ccccc21 (racemic) |
| Active | CN1C(=O)[C@]2(C[C@H]3C(=O)N[C@@]2(C)c2nc4ccccc4c(=O)n23)c2ccccc21 (racemic) |
| Active | C[C@@]12NC(=O)[C@H](C[C@]13C(=O)N(Cc1ccccc1)c1ccccc13)n1c2nc2ccccc2c1=O (racemic) |
| Active | CC(C)C[C@@]12NC(=O)[C@H](C[C@]13C(=O)Nc1ccccc13)n1c2nc2ccccc2c1=O (racemic) |
| Active | CN1C(=O)[C@]2(C[C@H]3C(=O)N(C)[C@@]2(C)c2nc4ccccc4c(=O)n23)c2ccccc21 (racemic) |
| Active | C[C@@]12NC(=O)[C@H](C[C@@]13C(=O)Nc1ccc(Cl)cc13)n1c2nc2ccc(Cl)cc2c1=O (racemic) |
| Active | CN1C(=O)[C@@H]2[C@H]3C(=O)N(c4ccccc4)C(=O)[C@H]3[C@]1(C)c1nc3ccccc3c(=O)n12 (racemic) |
| Active | CN1C(=O)[C@@H]2C[C@@]3(C(=O)N(Cc4ccccc4)c4ccccc43)[C@]1(C)c1nc3ccccc3c(=O)n12 (racemic) |
| Active | C[C@@]12NC(=O)[C@H](C[C@]13C(=O)Nc1ccc(Cl)cc13)n1c2nc2ccccc2c1=O (racemic) |
| Active | CC(C)C[C@@]12NC(=O)[C@H](C[C@@]13C(=O)Nc1ccccc13)n1c2nc2ccccc2c1=O (racemic) |
| Active | C[C@@]12NC(=O)[C@H](C[C@]13C(=O)Nc1ccccc13)n1c2nc2ccc(Cl)cc2c1=O (racemic) |
| Active | C[C@@]12NC(=O)[C@H](C[C@]13C(=O)Nc1ccccc13)n1c2nc2ccc(F)cc2c1=O (racemic) |
| Active | C[C@@]12NC(=O)[C@H](C[C@]13C(=O)Nc1ccccc13)n1c2nc2cc(Cl)ccc2c1=O (racemic) |
| Active | C[C@@]12NC(=O)[C@H](C[C@]13C(=O)Nc1ccccc13)n1c2nc2ccccc2c1=O (racemic) |
| Active | CN1C(=O)[C@@H]2C[C@]3(C(=O)N(Cc4ccccc4)c4ccccc43)[C@]1(C)c1nc3ccccc3c(=O)n12 (racemic) |
| Active | C[C@@]12NC(=O)[C@H](C[C@@]13C(=O)Nc1ccccc13)n1c2nc2ccc(F)cc2c1=O (racemic) |
| Active | C[C@@]12NC(=O)[C@H](C[C@@]13C(=O)Nc1ccccc13)n1c2nc2ccccc2c1=O (racemic) |
| Active | C[C@@]12NC(=O)[C@H](C[C@@]13C(=O)Nc1ccccc13)n1c2nc2cc(Cl)ccc2c1=O (racemic) |
| Active | CN1C(=O)[C@@]2(C[C@H]3C(=O)N(C)[C@@]2(C)c2nc4ccccc4c(=O)n23)c2ccccc21 (racemic) |
| Active | C[C@@]12NC(=O)[C@H](C[C@@]13C(=O)Nc1ccccc13)n1c2nc2ccc(Cl)cc2c1=O (racemic) |
| Active | CN1C(=O)[C@@H]2C[C@]3(C(=O)Nc4ccccc43)[C@]1(C)c1nc3ccccc3c(=O)n12 (racemic) |
| Active | C[C@@]12NC(=O)[C@H](C[C@]13C(=O)Nc1ccc(Cl)cc13)n1c2nc2ccc(Cl)cc2c1=O (racemic) |
| Active | C[C@@]12NC(=O)[C@H](C[C@@]13C(=O)Nc1ccc(Cl)cc13)n1c2nc2ccccc2c1=O (racemic) |
| Active | C[C@@]12NC(=O)[C@H]([C@H]3C(=O)N(c4ccccc4)C(=O)[C@H]31)n1c2nc2ccccc2c1=O (racemic) |
| Active | O=C1N[C@@]2(Cc3ccccc3)c3nc4ccccc4c(=O)n3[C@H]1C[C@]21C(=O)Nc2ccccc21 (racemic) |
| Active | C[C@@]12NC(=O)[C@H](C[C@@]13C(=O)N(Cc1ccccc1)c1ccccc13)n1c2nc2ccccc2c1=O (racemic) |
| Active | CC(C)[C@@]12NC(=O)[C@H](C[C@]13C(=O)Nc1ccccc13)n1c2nc2ccccc2c1=O (racemic) |

These compounds were tested on Neuron (assay: Inhibition of GABA-induced inward current in Periplaneta americana L neuron at 10 uM for 5 min by whole-cell patch clamp method).
Assay type: functional

| SMILES | inhibition at 10 µM [%] |
| --- | --- |
| C[C@@]12NC(=O)[C@H](C[C@]13C(=O)Nc1ccccc13)n1c2nc2ccccc2c1=O | 90.3 |
